According to patent US11690841B2, “Glycolysis-activating agents for treatment or prevention of disease” (Queen Mary University of London, priority 2017, dated 2023):

Legend:
Tregs [1] = experiment: Treg trans-endothelial migration and chemotaxis transwell assays; assay type: cell-based, mouse; conditions: Tregs pre-treated with drug for 4 hours; through IFN-γ-treated EC monolayers or in response to CCL22 / CXCL10
Experimental: FIG. 1. Glycolysis fuels Treg migration. Ex vivo expanded Tregs pre-treated with the indicated drugs or vehicle for 4 hours were left to migrate through 3 μm-pore transwells layered with IFN-γ-treated syngeneic EC monolayers (A-B) or in response chemokine CCL22 through bare filter 5 μm-pore transwells (C-D). Results are expressed as percentage of migrated cells after 24 hours (A-B, n=4, N=2) or at the indicated time-points (C, n=3)±SD. The fold increase in migration was calculated by dividing experimental migration by spontaneous migration measured at 6 hours in two experiments of identical design performed in triplicates±SD.
FIG. 2. Activated Treg phenotype and function and effect of exposure to metabolism-modifying drugs. Tregs were expanded as previously described (Fu et al., 2014). A-B Tregs were treated with the indicated metabolism-targeting drugs for 4-6 hours and extensively washed. Migration of drug-exposed Tregs in response to CXCL10 (300 ng/ml) was assessed by a transwell-based assay. Results are expressed as the mean percentage of migrated cells at the indicated time points±SD. Data obtained at 6 hours from three independent experiments of identical design and normalized by spontaneous migration±SD are shown in panel B. *P<0.05.
FIG. 5. Tregs were treated with the indicated metabolism-targeting drugs for 4-6 hours, extensively washed and cultured overnight in medium alone. Migration of drug-exposed Tregs in response to CCL22 (300 ng/ml, A-B) CXCL10 (300 ng/ml, C-D) was assessed by a 6 hr chemokinesis transwell assay ([…]). Results are expressed as the mean percentage of migrated cells in a typical experiment performed in triplicate±SD (A, C). […]
Lymphocyte trans-endothelial migration and chemotaxis assays. […] The number of migrated T cells was determined by a hemocytometer counting of the cells present in the well media at different time points over a 24-h period. […] The number of migrated cells was determined by a hemocytometer.

Tregs [2] = experiment: T cell recruitment in the peritoneum (labelled drug-treated Tregs injected into IFN-γ-treated syngeneic recipients); assay type: in vivo, mice; conditions: for Treg migration / trafficking in vivo: drug-treated PKH26-labelled Tregs injected i.v. into recipients given IFN-γ i.p. 48 hours earlier, harvested after 24 hours
Experimental: FIG. 3. Drug- or vehicle-treated Tregs labeled with the fluorescent intravital dye PKH26 were injected i.v. into syngeneic recipients treated with IFN-γ i.p. 48 hours earlier. Cells were harvested from the indicated tissues after 24 hours and analyzed by flow cytometry. Representative dot plots from 3 animals are shown in panels A and C. The mean absolute number of labeled cells recovered in 4 animals±SD is shown in panels B and D. (N=1)
(§1) FIG. 20. A: AZD1656 (GCK activator, 1 μM) and vehicle-treated Tregs (2 hours in insulin-free medium) were labeled with different intravital fluorescent dyes, and co-injected into syngeneic recipients that had received IFN-γ i.p. 48 hours earlier. Cells were recovered from the peritoneum or spleen after 24 hours and analyzed by flow cytometry. Representative dot plots are shown. The bar graphs indicate mean absolute number of labeled cells retrieved±SD (n=4 N=2). B-C: expression of PCNA by Tregs stimulated with allogeneic DCs following treatment with either AZD1656 (B) or Clotrimazole (CLT, 1 μM, 2 hours, C) or vehicle alone was measured by flow cytometry. NS, non-stimulated control Tregs. Representative histograms are shown. (n=3, N=3).
FIG. 21. A: ECAR of Treg cells activated with recombinant ICAM-1 or Fc control. CLT or vehicle, as well as other glycolysis-affecting drugs were added as indicated. B: CLT- or vehicle-treated Tregs underwent CD28 or isotype-matched antibody-stimulation, labelled with different intravital fluorescent dyes and injected i.v. in syngeneic recipients that had received IFN-γ i.p. 48 hours earlier. Cells were recovered from the peritoneum (P) or spleen (S) after 24 hours and analyzed by flow cytometry. Representative dot plots are shown. The column graphs indicate mean absolute number of labeled cells retrieved±SD (n=3 N=2). * p<0.05 ***p<0.005; ****p<0.001.
T cell recruitment in the peritoneum. To observe in vivo recruitment of T cells we used the previously described model of T cell recruitment (Mirenda et al., 2007). Either PKH26 or CFSE or DDAO-SE-labelled T cells (10^7) were injected intravenously (i.v.) into mice that hd received IFN-γ (600U) via intraperitoneal injection (i.p.) 48 to 72 hours earlier. Labeled T cells recovered via peritoneal lavage were analyzed 16 hours later using flow cytometry. In addition, localization of Tregs to the spleen, where entry occurs in a passive manner (Fu et al., 2016), was analyzed to ensure that similar numbers/proportion of labeled cells were injected or co-injected in all recipients (internal control).

Tregs [3] = experiment: PCNA expression by Tregs stimulated with allogeneic DCs (flow cytometry); assay type: cell-based, mouse; conditions: 1 μM, 2 hours
Experimental: as §1
Intracellular staining. For intracellular Foxp3 staining, eBioscience Anti-Mouse/Rat Foxp3 Staining Set APC (clone FJK-165, Thermo Fisher Scientific Cat #17-5773-82) kit was used. Cells were resuspended (10^7/ml) and stained with surface antigens as mentioned above and then fixed/permeabilized for 30 minutes at 4° C. using Fixation/Permeabilization working solution made from mixing 1 part of the fixation/permebilization concentrate (eBioscience, Cat #00-5123) to 3 parts of the fixation/permebilization diluent (eBioscience, Cat #00-5223). […]

B6Kd skin allograft = experiment: Survival of B6Kd-derived skin grafts transplanted in C57BL/6 recipients; assay type: in vivo, C57BL/6 mice; conditions: 10 mg/kg twice daily (20 mg/kg daily) for 2 weeks after transplantation
Description: C57B16 mice received a B6Kd skin graft or syngeneic skin as a control. […] To establish the selectivity of GCK usage by Tregs to sustain their motility, we compared the effect of pharmacological activation of GCK on the survival of B6Kd-derived skin grafts transplanted in C57BL/6 recipients. […] This schedule was designed in order to promote migration of endogenous Tregs during the early stages of the alloresponse. Control groups received saline solution with vehicle alone.

[4] = system: CD3/CD28-stimulated Tconv cells; experiment: ECAR and OCR fluxometry (Seahorse) of anti-CD3 plus anti-CD28 stimulated CD4+ T cells; assay type: cell-based, mouse
Experimental: Real time analysis of the ECAR and OCR of CD4+ T cells stimulated for 24 hours with anti-CD3 plus anti-CD28 antibodies was performed using fluxometry. Wells were injected first with CLT or Vehicle. A second injection followed at the time point indicated (dashed line) introducing D-glucose into the wells. Subsequently, modulators of glycolysis (A) or cellular respiration (B) were sequentially injected at the indicated time points. […] OCR=Oxygen Consumption Rate: indirect measure of mitochondrial respiration and fatty acid oxidation (FAO). Measurement of ECAR and OCR. Real time bioenergetics analysis of extracellular acidification rates (ECAR) and oxygen consumption rates (OCR) of T cells subjected to antibody stimulation was performed using the XF analyzer (Seahorse biosciences). T cells were cultured in serum free, unbuffered XF assay medium (Seahorse biosciences, Cat #102365-100) for 1 hour. The cells were then seeded (6×10^5/well) into the seahorse XF24 cell plates for analysis. Perturbation profiling of the use of metabolic pathways by T cells was achieved by the addition of oligomycin (1 μM), FCCP (1 μM), Antimycin A (1 μM), rotenone (1 μM), D-glucose (10 mM), 2-Deoxy-D-glucose (2DG, 50 mM; all from Seahorse biosciences, Cat #103020-100 and 103015-100). […] Metabolic parameters were calculated. […]

Tregs [5] = experiment: ECAR of Treg cells activated with recombinant ICAM-1; assay type: cell-based, mouse; conditions: Tregs activated with recombinant ICAM-1
Experimental: A: ECAR of Treg cells activated with recombinant ICAM-1 or Fc control. CLT or vehicle, as well as other glycolysis-affecting drugs were added as indicated. […] Measurement of ECAR and OCR. Real time bioenergetics analysis of extracellular acidification rates (ECAR) and oxygen consumption rates (OCR) of T cells subjected to antibody stimulation was performed using the XF analyzer (Seahorse biosciences). T cells were cultured in serum free, unbuffered XF assay medium (Seahorse biosciences, Cat #102365-100) for 1 hour. The cells were then seeded (6×10^5/well) into the seahorse XF24 cell plates for analysis. Perturbation profiling of the use of metabolic pathways by T cells was achieved by the addition of oligomycin (1 μM), FCCP (1 μM), Antimycin A (1 μM), rotenone (1 μM), D-glucose (10 mM), 2-Deoxy-D-glucose (2DG, 50 mM; all from Seahorse biosciences, Cat #103020-100 and 103015-100). Experiments with the Seahorse system were done with the following assay conditions: 2 min mixture; 2 minutes wait; and 4-5 min measurement. Metabolic parameters were calculated. Experiments were done in at least triplicate wells.

Structure (SMILES)	Treg migration / motility in vitro (Tregs [1])	Treg migration / trafficking in vivo (Tregs [2])	Treg division (PCNA expression / upregulation) (Tregs [3])	also measured
O=CC[C@@H](O)[C@H](O)[C@H](O)CO [2-DG, 2-deoxyglucose]	migrated inefficiently	migrated inefficiently	–	–
COC[C@H](C)Oc1cc(Oc2cnc(C(=O)N3CCC3)cn2)cc(C(=O)Nc2cnc(C)cn2)c1 [AZD1656, 3-[5-(azetidine-1-carbonyl)pyrazin-2-yl]oxy-5-[(2S)-1-methoxypropan-2-yl]oxy-N-(5-methylpyrazin-2-yl)benzamide]	–	–	did not affect	Treg migration to the inflamed tissue (Tregs [2]; Tregs treated with 1 μM for 2 hours in insulin-free medium, co-injected with vehicle-treated Tregs, peritoneum after 24 hours): significantly enhanced; Skin graft rejection (B6Kd skin allograft): significantly delays
Clc1ccccc1C(c1ccccc1)(c1ccccc1)n1ccnc1 [CLT, Clotrimazole]	–	–	effective at inhibiting	Treg migration to inflamed peritoneum in vivo (Tregs [2]; drug-treated Tregs with CD28 or isotype antibody stimulation, injected i.v., recovered after 24 hours): did not affect; Glycolytic flux (ECAR) [4]: inhibits; Respiration (OCR) [4]: inhibits; rICAM-1-mediated induction of glycolysis (ECAR) (Tregs [5]): did not affect
CCOC(=O)[C@@]1(CCCCCCOc2ccc(Cl)cc2)CO1 [Etomoxir]	Treg migration does not require fatty acid oxidation	–	–	–
CN(C)C(=N)N=C(N)N [metformin]	increased Treg motility	increased	–	–
